Test results published in PMC3254644, “DNA Display Selection of Peptide Ligands for a Full-Length Human G Protein-Coupled Receptor on CHO-K1 Cells” (PLoS ONE, 2012).
Residues, ends and D or L forms follow the SMILES beside them.

Experiments:
[1] = biological target: human angiotensin II (Ang II) type-1 receptor (hAT1R) with C-terminal c-myc tag, on CHO-K1 cells (human) (UniProt P30556); assay: radioligand binding; [125I]Sar1,Ile8-Ang II, 0.05 nM to 20 nM, on hAT1R/CHO-K1 cells in 48-well plates; Ham's F12 with 1% BSA; 30 min at room temperature; Scatchard analysis; data not shown
rat AT1R = tested on: rat AT1R; parameters: method as in PMID 12969745; details: cited from earlier work
[2] = biological target: T1, human angiotensin II type 1 receptor (hAT1R) (Homo sapiens, UniProt P30556); assay: Competitive binding assay at various concentrations of synthetic peptides (IC50); details: streptavidin-fused Ang II on hAT1R/CHO-K1 cells competed by 0–200 nM synthetic peptide; 10 min room temperature; quantitative Western blot (Fig. S1)
T1 construct: we applied the DNA display system to in vitro selection of peptide ligands for a full-length GPCR expressed on whole cells; polyhistidine (C); expressed in transfected cells
T1 sequence (P30556 1-359): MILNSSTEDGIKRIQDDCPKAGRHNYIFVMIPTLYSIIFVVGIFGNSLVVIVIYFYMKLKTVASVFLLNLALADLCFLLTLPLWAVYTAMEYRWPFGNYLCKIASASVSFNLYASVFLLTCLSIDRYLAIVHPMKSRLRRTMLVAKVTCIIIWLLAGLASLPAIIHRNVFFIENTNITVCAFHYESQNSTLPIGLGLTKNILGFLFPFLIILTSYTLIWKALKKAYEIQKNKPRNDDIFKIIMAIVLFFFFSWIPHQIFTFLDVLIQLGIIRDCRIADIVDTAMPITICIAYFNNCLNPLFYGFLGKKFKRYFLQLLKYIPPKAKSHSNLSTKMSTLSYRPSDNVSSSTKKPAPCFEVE
Procedure: Streptavidin-fused peptides for selected clones were prepared separately by using the PURE system classic II kit with 20 nM DNA for 1 h at 37°C. The streptavidin-fused peptides were incubated with the hAT1R-expressing cells for 10 min at room temperature in the presence 0–200 nM synthetic peptides (see next section) as competitors, and washed as described in the previous section. Then the binding proteins were recovered using 0.5 ml of lysis buffer (1% protease inhibitor cocktail and 4 M urea) on ice for 30 min. The cell lysates were analyzed by 15% SDS-PAGE and Western blot analysis using anti-T7·tag antibody (Novagen) followed by HRP-conjugated secondary antibody (Chemicon). The streptavidin-fused peptides with T7·tag were quantitatively detected by an ECL chemiluminescence kit and Hyperfilm ECL (GE Healthcare).
Supplementary file pone.0030084.s001.pdf: Figure S1 Competition curves for selected peptides. […] For details, see MATERIALS AND METHODS. (PDF) Click here for additional data file.

Compound	IC50 [2]	further results
[125I]Sar1,Ile8-Ang II (peptide)		Kd [1]: 8.2 nM
[Lys^2]Ang II (DKVYIHPF; Angiotensin-2; UniProt P01019 25-32, looked up, variant R2K) [Ang II analogue with Lys at position 2, from the literature]		affinity for rat AT1R relative to wild-type Ang II (rat AT1R): lower than that of wild-type Ang II
CC[C@H](C)[C@H](NC(=O)[C@@H]1CCCN1C(=O)[C@H](Cc1c[nH]cn1)NC(=O)[C@@H](NC(=O)[C@H](Cc1ccc(O)cc1)NC(=O)[C@H](CC(C)C)NC(=O)[C@H](CCCNC(=N)N)NC(=O)CN)[C@@H](C)CC)C(=O)O [LII3-2] (H-GRLYIHPI-OH)	8.6 nM	
CC[C@H](C)[C@H](NC(=O)[C@H](CCCNC(=N)N)NC(=O)[C@@H](N)CC(N)=O)C(=O)N[C@@H](Cc1ccc(O)cc1)C(=O)N[C@H](C(=O)N[C@@H](Cc1c[nH]cn1)C(=O)N1CCC[C@H]1C(=O)N[C@@H](Cc1ccccc1)C(=O)O)[C@@H](C)CC [LI5-1] (H-NRIYIHPF-OH)	16 nM	
CC[C@H](C)[C@H](NC(=O)[C@H](Cc1ccc(O)cc1)NC(=O)[C@H](Cc1ccccc1)NC(=O)[C@H](CCCNC(=N)N)NC(=O)[C@@H](N)CCC(N)=O)C(=O)N[C@@H](Cc1c[nH]cn1)C(=O)N1CCC[C@H]1C(=O)N[C@@H](CC(C)C)C(=O)O [LII3-4] (H-QRFYIHPL-OH)	48 nM	

Continued, in another order:

IC50 [2]	Compound	further results
7.6 nM	CC[C@H](C)[C@H](NC(=O)[C@@H]1CCCN1C(=O)[C@H](Cc1c[nH]cn1)NC(=O)[C@@H](NC(=O)[C@H](Cc1ccc(O)cc1)NC(=O)[C@H](CC(C)C)NC(=O)[C@H](CCCCN)NC(=O)[C@@H](N)CCCNC(=N)N)[C@@H](C)CC)C(=O)O [LII3-5] (H-RKLYIHPI-OH)	
75 nM	CC(C)C[C@H](NC(=O)[C@H](CCCNC(=N)N)NC(=O)[C@@H](N)Cc1c[nH]c2ccccc12)C(=O)N[C@@H](Cc1ccc(O)cc1)C(=O)N[C@@H](CC(C)C)C(=O)N[C@@H](Cc1c[nH]cn1)C(=O)N1CCC[C@H]1C(=O)N[C@@H](Cc1ccccc1)C(=O)O [LI5-2] (H-WRLYLHPF-OH)	
